Laboratory results taken from patent publication US12338236B2, “Benzoisothiazole and benzoisoxazole compounds for the treatment of mental disorders” (SUVEN LIFE SCIENCES LIMITED, priority 2022, dated 2025).
Structures can show the parent of a compound that is named as a salt.

Tests used:
human 5-HT1A receptor = molecular target: T1, human 5-HT1A receptor (Homo sapiens, UniProt P08908); assay: Determination of Ki values at 5-HT1A receptor ([3H]-8-Hydroxy DPAT radioligand binding); conditions: h5-HT1A, HEK293-EBNA, [3H]-8-Hydroxy DPAT 0.8 nM
T1 construct: expressed in transfected cells; host or cells: HEK293-EBNA
T1 sequence (P08908 1-422): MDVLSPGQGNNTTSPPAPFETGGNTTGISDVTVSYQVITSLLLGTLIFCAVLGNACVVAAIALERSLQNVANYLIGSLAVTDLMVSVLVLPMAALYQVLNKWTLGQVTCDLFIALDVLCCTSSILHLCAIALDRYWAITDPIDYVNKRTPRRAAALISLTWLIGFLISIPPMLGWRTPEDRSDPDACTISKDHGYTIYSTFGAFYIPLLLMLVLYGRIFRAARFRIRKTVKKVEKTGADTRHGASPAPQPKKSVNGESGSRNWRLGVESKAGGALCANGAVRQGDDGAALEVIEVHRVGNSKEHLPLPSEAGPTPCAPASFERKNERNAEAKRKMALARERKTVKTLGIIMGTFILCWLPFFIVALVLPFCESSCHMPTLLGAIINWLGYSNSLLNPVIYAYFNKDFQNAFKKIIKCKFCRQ
Method: Example-43: Determination of Ki Values at 5-HT1A Receptor
• Receptor source: Recombinant mammalian cells (HEK293-EBNA) • Radioligand: [^3H]-8-Hydroxy DPAT (200 Ci/mmol) • Final ligand concentration: 0.8 nM • Non-specific determinant: 0.1 mM U92016A • Reference compound: U92016A • Positive control: U92016A Incubation conditions: Reactions were carried out in buffer with pH 7.4 containing 50 mM Tris-HCl, 0.5 mM EDTA, 10 mM MgSO4, 0.1% Ascorbic acid for 2 h at RT. The reaction was terminated by rapid vacuum filtration onto the glass fiber filters. Radioactivity trapped onto the filters was determined and compared to the control values in order to ascertain any interactions of the test compound(s) with cloned human 5-HT1A receptor binding site.

[1] = molecular target: T2, human dopamine D2s receptor (Homo sapiens, UniProt P14416); assay: Determination of Ki values at D2S receptor ([3H]-Raclopride radioligand binding); conditions: hD2 (D2S), CHO-K1, [3H]-Raclopride 4 nM; read-out: Ki D2
T2 construct: expressed in transfected cells; host or cells: CHO-K1
T2 sequence (P14416 1-414 isoform P14416-2): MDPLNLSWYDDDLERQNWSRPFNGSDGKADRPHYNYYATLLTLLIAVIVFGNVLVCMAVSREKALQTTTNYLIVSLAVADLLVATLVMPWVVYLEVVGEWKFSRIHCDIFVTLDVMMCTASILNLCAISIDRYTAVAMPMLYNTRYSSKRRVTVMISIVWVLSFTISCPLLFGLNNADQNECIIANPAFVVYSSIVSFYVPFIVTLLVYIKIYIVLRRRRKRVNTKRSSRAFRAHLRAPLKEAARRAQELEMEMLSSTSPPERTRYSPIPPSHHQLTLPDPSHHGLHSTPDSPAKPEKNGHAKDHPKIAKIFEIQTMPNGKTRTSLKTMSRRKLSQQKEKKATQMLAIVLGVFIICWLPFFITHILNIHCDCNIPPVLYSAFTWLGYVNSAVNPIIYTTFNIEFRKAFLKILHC
Method: Example-45: Determination of Ki Values at D2S Receptor
• Receptor source: Recombinant mammalian cells (CHO-K1) • Radioligand: [^3H]-Raclopride (80.8 Ci/mmol) • Final ligand concentration: 4 nM • Non-specific determinant: 0.1 mM Haloperidol • Reference compound: Haloperidol • Positive control: Haloperidol Incubation conditions: Reactions were carried out in buffer with pH 7.4 containing 50 mM Tris-HCl, 120 mM NaCl, 5 mM KCl, 5 mM MgCl2, 1 mM EDTA for 2 h at RT. The reaction was terminated by rapid vacuum filtration onto the glass fiber filters. Radioactivity trapped onto the filters was determined and compared to the control values in order to ascertain any interactions of the test compound(s) with cloned human dopamine D2s receptor binding site.

human SERT = molecular target: T3, human SERT (Homo sapiens, UniProt P31645); assay: Determination of Ki values at SERT receptor ([3H]-Citalopram SPA binding); conditions: hSERT, HEK293, [3H]-Citalopram 2 nM
T3 construct: expressed in transfected cells; host or cells: HEK293
T3 sequence (P31645 whole entry): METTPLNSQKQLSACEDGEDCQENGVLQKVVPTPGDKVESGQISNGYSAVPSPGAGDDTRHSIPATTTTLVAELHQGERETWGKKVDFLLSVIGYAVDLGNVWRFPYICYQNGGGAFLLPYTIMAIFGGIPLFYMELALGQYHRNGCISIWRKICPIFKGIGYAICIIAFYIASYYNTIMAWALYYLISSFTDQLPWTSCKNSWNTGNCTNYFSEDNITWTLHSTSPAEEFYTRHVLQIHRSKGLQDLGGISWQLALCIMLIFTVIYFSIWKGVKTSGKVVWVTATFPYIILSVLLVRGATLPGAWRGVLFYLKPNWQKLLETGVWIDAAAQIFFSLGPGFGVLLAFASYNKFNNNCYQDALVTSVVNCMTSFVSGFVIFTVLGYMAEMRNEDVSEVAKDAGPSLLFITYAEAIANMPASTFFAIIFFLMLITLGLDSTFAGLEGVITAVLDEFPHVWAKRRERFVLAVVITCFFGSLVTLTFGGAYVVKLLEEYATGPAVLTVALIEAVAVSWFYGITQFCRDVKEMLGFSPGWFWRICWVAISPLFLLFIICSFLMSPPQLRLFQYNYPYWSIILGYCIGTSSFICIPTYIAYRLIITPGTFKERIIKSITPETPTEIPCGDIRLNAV
Method: Example-46: Determination of Ki Values at SERT Receptor
• Receptor source: Recombinant mammalian cells (HEK293) • Radioligand: [^3H]-Citalopram (80.8 Ci/mmol) • Final ligand concentration: 2 nM • Non-specific determinant: 0.1 mM Venlafaxine • Reference compound: Venlafaxine • Positive control: Venlafaxine Incubation conditions: Reactions were carried out in buffer with pH 7.4 containing 50 mM Tris-HCl, 150 mM NaCl, 5 mM KCl and Scintillation proximity assay (SPA) beads (0.1 mg/well) for 3 h at RT. Radioactivity proximal to SPA beads was determined by scintillation proximity assay and compared to the control values in order to ascertain any interactions of the test compound(s) with cloned human SERT receptor binding site.

[2] = molecular target: T4, human adrenergic α1B receptor (Homo sapiens, UniProt P35368); assay: Determination of Ki values at adrenergic α1B receptor ([3H]-Prazosin radioligand binding); conditions: hα1B, Chem-1 cells, [3H]-Prazosin 1 nM; read-out: Ki Alpha1B
T4 construct: expressed in transfected cells; host or cells: Chem-1
T4 sequence (P35368 1-520): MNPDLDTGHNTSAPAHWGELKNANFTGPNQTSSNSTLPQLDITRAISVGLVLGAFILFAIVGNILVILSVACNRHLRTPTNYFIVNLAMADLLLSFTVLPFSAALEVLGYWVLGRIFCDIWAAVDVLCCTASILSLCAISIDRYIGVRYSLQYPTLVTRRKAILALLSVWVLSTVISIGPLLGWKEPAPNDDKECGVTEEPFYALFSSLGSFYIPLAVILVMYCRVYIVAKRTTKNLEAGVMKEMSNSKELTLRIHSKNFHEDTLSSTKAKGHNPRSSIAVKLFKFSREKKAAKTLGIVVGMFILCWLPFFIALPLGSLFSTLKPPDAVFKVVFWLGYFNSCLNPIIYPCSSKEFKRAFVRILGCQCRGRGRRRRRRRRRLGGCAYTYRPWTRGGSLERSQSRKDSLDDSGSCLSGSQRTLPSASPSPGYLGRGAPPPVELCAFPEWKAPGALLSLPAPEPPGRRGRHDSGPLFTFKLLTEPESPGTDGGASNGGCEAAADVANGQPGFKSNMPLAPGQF
Method: Example-47: Determination of Ki Values at Adrenergic α1B Receptor
• Receptor source: Recombinant mammalian cells (Chem-1) • Radioligand: [^3H]-Prazosin (77.4 Ci/mmol) • Final ligand concentration: 1 nM • Non-specific determinant: 0.1 mM Prazosin • Reference compound: Prazosin • Positive control: Prazosin Incubation conditions: Reactions were carried out in buffer with pH 7.4 containing 67 mM Tris-HCl, 67 μM EDTA, […] for 1 h at RT. The reaction was terminated by rapid vacuum filtration onto the glass fiber filters. Radioactivity trapped onto the filters was determined and compared to the control values in order to ascertain any interactions of the test compound(s) with cloned human adrenergic α1B receptor binding site.

[3] = molecular target: T5, human histamine H1 receptor (Homo sapiens, UniProt P35367); assay: Determination of Ki values at histamine H1 receptor ([3H]-Pyrilamine SPA binding); conditions: hH1, CHO-K1, [3H]-Pyrilamine 2 nM
T5 construct: expressed in transfected cells; host or cells: CHO-K1
T5 sequence (P35367 whole entry): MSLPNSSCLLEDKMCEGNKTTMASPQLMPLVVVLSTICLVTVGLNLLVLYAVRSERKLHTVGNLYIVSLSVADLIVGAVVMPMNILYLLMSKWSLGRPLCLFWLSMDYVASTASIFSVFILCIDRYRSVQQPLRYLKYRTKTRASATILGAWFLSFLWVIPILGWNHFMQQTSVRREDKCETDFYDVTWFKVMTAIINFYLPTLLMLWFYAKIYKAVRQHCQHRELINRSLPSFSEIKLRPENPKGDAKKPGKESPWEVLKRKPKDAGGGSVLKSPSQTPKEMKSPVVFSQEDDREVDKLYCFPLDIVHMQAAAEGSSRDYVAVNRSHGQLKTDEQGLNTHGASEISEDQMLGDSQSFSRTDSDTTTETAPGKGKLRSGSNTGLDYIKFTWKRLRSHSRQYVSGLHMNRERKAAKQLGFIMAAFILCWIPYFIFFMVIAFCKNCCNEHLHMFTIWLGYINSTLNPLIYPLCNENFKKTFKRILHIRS
Method: Example-48: Determination of Ki values at Histamine H1 receptor
• Receptor source: Recombinant mammalian cells (CHO-K1) • Radioligand: [^3H]-Pyrilamine (20.7 Ci/mmol) • Final ligand concentration: 2 nM • Non-specific determinant: 0.1 mM Pyrilamine • Reference compound: Pyrilamine • Positive control: Pyrilamine Incubation conditions: Reactions were carried out in buffer with pH 7.4 containing 67 mM Tris-HCl and SPA beads (0.1 mg/well) for 1 h at 37° C. Radioactivity proximal to SPA beads was determined by scintillation proximity assay and compared to the control values in order to ascertain any interactions of the test compound(s) with cloned human histamine H1 receptor binding site.

Row | Compound | Ki (human 5-HT1A receptor) [nM] | Ki [1] [nM] | Ki (human SERT) [nM] | Ki [2] [nM] | Ki [3] [nM]
1 | Cc1nnc(-c2csc(OCCCN3CCN(c4nsc5ccccc45)CC3)n2)o1 [Example-2, 3-(4-{3-[4-(5-Methyl-[1,3,4]oxadiazol-2-yl)-thiazol-2-yloxy]-propyl}-piperazin-1-yl)-benzo[d]isothiazole oxalate] | 0.15 | 0.41 | 80 | 13.3 | 9.9
2 | Cc1noc(-c2csc(OCCCN3CCN(c4nsc5ccccc45)CC3)n2)n1 [compound 12, 3-(4-{3-[4-(3-Methyl-[1,2,4]oxadiazol-5-yl)-thiazol-2-yloxy]-propyl}-piperazin-1-yl)-benzo[d]isothiazole oxalate] | 0.2 | 0.4 | 157 | 14.4 | 4.1
